Test results reported in PMC4640066 (Nature Communications, 2015).

Target: T1, α/β-tubulin (Sus scrofa, UniProt P02550+P02554)
T1 construct: α/β-Tubulin was purified from porcine brain; from tissue; host or cells: porcine brain
Assay: Tryptophan-based drug-binding assay, α/β-tubulin
Design: species or system porcine
Settings: tryptophan fluorescence decrease; 1 μM protein; mean±s.d., three independent experiments
Method: γ-TuSC was purified as described. Briefly, γ-TuSC was expressed in HighFive cells and purified by sequential steps of Ni-NTA (Macherei-Nagel) purification, MonoQ column purification (GE Healthcare) and size exclusion (Superdex 200 column, GE Healthcare)[14]. α/β-Tubulin was purified from porcine brain through four cycles of polymerization and depolymerization using 1 M PIPES buffer (1 M PIPES-KOH, 1 mM EGTA, 1 mM MgCl2, pH 6.8) for effective removal of MT-associated proteins.
Gel filtration buffer for γ-tubulin purification (50 mM MES pH 6.6, 500 mM KCl, 5 mM MgCl2, 1 mM EGTA and 1 mM DTT) supplemented with 10% of glycerol was used as an assay buffer. γ-tubulin and α/β-tubulin were diluted in this assay buffer to reach a final protein concentration of 1 μM. A final concentration of 10 μM or 1 mM GTP was added to the samples. Proteins were incubated for 30 min with compounds (final DMSO concentration was 1%; 2% for AG1 and gatastatin). […] Dissociation constants were calculated from fitting curves of decreasing fluorescence (ΔFL) using the GraphPad Prizm software.

T1 sequence (P02554 whole entry): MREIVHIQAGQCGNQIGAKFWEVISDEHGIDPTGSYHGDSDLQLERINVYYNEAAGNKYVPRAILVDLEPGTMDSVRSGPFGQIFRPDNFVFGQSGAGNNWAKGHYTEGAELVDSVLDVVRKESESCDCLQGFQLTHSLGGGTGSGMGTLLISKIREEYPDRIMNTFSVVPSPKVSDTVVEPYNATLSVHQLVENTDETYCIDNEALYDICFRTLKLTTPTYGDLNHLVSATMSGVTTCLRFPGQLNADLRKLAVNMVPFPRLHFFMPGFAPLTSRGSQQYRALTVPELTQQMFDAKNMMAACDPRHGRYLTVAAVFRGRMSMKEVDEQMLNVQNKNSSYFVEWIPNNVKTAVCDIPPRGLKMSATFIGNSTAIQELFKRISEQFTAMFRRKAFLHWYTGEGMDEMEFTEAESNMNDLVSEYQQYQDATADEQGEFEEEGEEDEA
T1 sequence (P02550 whole entry): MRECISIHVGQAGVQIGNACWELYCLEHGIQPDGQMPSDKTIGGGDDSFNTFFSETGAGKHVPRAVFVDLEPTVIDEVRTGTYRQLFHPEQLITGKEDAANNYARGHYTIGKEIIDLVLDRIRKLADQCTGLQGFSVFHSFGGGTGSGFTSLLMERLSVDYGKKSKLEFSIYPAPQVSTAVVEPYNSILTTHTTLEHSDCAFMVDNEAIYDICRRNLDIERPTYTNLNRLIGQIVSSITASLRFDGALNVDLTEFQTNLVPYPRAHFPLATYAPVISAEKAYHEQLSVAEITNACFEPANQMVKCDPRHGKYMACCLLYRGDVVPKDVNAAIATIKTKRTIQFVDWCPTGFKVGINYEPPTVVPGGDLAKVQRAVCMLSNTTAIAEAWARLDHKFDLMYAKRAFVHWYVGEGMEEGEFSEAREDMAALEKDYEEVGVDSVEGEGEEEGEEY

Kd: 42.5 ± 36.7 µM
SMILES: COc1cc2c(=O)c(-c3cc(OC)c4c(c3OC)OCO4)coc2cc1OCc1ccccc1 [Gatastatin, O^7-demethylbenzyl AG1]
